Measured values published in article PMC12189828, “Substitution of Proline Residues by 4-Fluoro-L-Proline Affects the Mechanism of the Proline-Rich Antimicrobial Peptide Api137” (Antibiotics, 2025).
Where a SMILES comes first, the peptide text is derived from it. The star is where a group is joined. Orn(α-tetramethylguanidino) = CN(C)C(=N[C@@H](CCCN)C(=O)*)N(C)C

Molecular target: 70S ribosomes isolated from E. coli BW25113 (Escherichia coli, UniProt P60723+P61175)
Assay: Fluorescence polarization, competition with cf-Api137 for 70S ribosome binding (Ki)
Details: crude 70S ribosome extract, fluorescence polarization, 28 °C, 90 min + 90 min; two independent experiments with two replicates each (n = 4); Table 2
Procedure: E. coli BW25113 were cultivated in LB medium and harvested by centrifugation (5000× g, 15 min, 4 °C) at an OD600 of 3–4. Cell pellets were washed in ribosome preparation buffer (20 mmol/L HEPES-KOH, 6 mmol/L MgCl2, 30 mmol/L NH4Cl, pH 7.6, 4 °C), centrifuged (4100× g, 30 min, 4 °C), and resuspended in ribosome preparation buffer (0.5 g/L) containing freshly added 2-mercaptoethanol (4 mmol/L) and lysozyme. Cells were incubated on ice for 30 min and disrupted in six cycles using a FastPrep-24^TM 5G instrument (MP Biomedicals, Eschwege, Germany) with the BigPrep 50 mL setting (40 s, 4.0 m/s), interrupted by one minute of incubation on ice between the cycles. After a centrifugation step (1620× g, 5 min, 4 °C), DNase I (5 U/mL) was added to the supernatant and incubated for 1 h on ice. Cell debris was removed by centrifugation at 16,000× g (30 min, 4 °C) and twice at 32,000× g (60 min, 4 °C). Crude ribosomes were obtained by centrifugation at 165,000× g (17 h, 4 °C). […]
Inhibition constants (Ki) were measured for the 70S ribosome extract using cf-labeled and unlabeled peptides in ribosome preparation buffer. […] Fluorescence polarization was determined on a PARADIGM^TM microplate reader in the top reading position (λex = 485 nm, λem = 535 nm). […] Ki values were calculated as described by Mathias and Jung.

Compound: CC[C@H](C)[C@H](NC(=O)[C@H](Cc1ccc(O)cc1)NC(=O)[C@@H](NC(=O)[C@@H]1CCCN1C(=O)[C@H](CCCNC(=N)N)NC(=O)[C@H](CC(N)=O)NC(=O)[C@H](CC(N)=O)NC(=O)[C@H](CCCN)N=C(N(C)C)N(C)C)C(C)C)C(=O)N1CCC[C@H]1C(=O)N[C@@H](CCCNC(=N)N)C(=O)N1CCC[C@H]1C(=O)N[C@@H](CCCNC(=N)N)C(=O)N1CCC[C@H]1C(=O)N1CCC[C@H]1C(=O)N[C@@H](Cc1c[nH]cn1)C(=O)N1CCC[C@H]1C(=O)N[C@@H](CCCNC(=N)N)C(=O)N[C@@H](CC(C)C)C(=O)O [Api137] ({Orn(α-tetramethylguanidino)}-NNRPVYIPRPRPPHPRL-OH; N-terminus and C-terminus assumed)
- Ki: 2.6 ± 0.2 nM
